# Results reported in PubChem BioAssay (NCI).
#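 Five concentrations, 48 hours, 96-well plates. TGI is the concentration that stops growth completely.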
# What was measured:
# Experiment in all cases: NCI anticancer screen, dose series, 48 h
# M19-MEL melanoma = test system: M19-MEL melanoma
# A549 NSCLC = test system: A549 NSCLC
# SF-295 CNS = test system: SF-295 CNS
# SN12C renal = test system: SN12C renal
# HL-60(TB) leukemia = test system: HL-60(TB) leukemia
# SF-268 CNS = test system: SF-268 CNS
# UACC-257 melanoma = test system: UACC-257 melanoma
# LOX IMVI melanoma = test system: LOX IMVI melanoma
# TK-10 renal = test system: TK-10 renal
# KM12 colon = test system: KM12 colon
# NCI-H460 lung = test system: NCI-H460 lung
# OVCAR-3 ovarian = test system: OVCAR-3 ovarian
# SNB-75 CNS = test system: SNB-75 CNS
# HCT-15 colon = test system: HCT-15 colon
# UACC-62 melanoma = test system: UACC-62 melanoma
# UO-31 renal = test system: UO-31 renal
# A498 renal = test system: A498 renal
# EKVX NSCLC = test system: EKVX NSCLC
# SW-620 colon = test system: SW-620 colon
# IGROV1 ovarian = test system: IGROV1 ovarian
SMILES,TGI (M19-MEL melanoma) [µM],TGI (A549 NSCLC) [µM],TGI (SF-295 CNS) [µM],TGI (SN12C renal) [µM],TGI (HL-60(TB) leukemia) [µM],TGI (SF-268 CNS) [µM],TGI (UACC-257 melanoma) [µM],TGI (LOX IMVI melanoma) [µM],TGI (TK-10 renal) [µM],TGI (KM12 colon) [µM],TGI (NCI-H460 lung) [µM],TGI (OVCAR-3 ovarian) [µM],TGI (SNB-75 CNS) [µM],TGI (HCT-15 colon) [µM],TGI (UACC-62 melanoma) [µM],TGI (UO-31 renal) [µM],TGI (A498 renal) [µM],TGI (EKVX NSCLC) [µM],TGI (SW-620 colon) [µM],TGI (IGROV1 ovarian) [µM]
O=C1NP23(OCCO2)Oc2ccccc2C3(C(F)(F)F)O1 (stereo not given),> 100,> 100,> 100,> 100,> 100,> 100,> 100,> 100,> 100,> 100,> 100,> 100,> 100,> 100,> 100,,,,,
COc1ccc(/C(Cl)=C(\C=O)c2ccc(OC)c(OC)c2)cc1,> 100,,> 100,> 100,> 100,> 100,,> 100,> 100,,> 100,> 100,58.7,> 100,> 100,> 100,98.8,> 100,> 100,> 100
CC(=O)O/C(=C1\C[C@H]2[C@@H]3CC=C4C[C@@H](OC(C)=O)CC[C@]4(C)[C@H]3CC[C@]2(C)C1=O)C(F)(F)F,,36.8,35.9,24.1,13.6,19.9,15.1,5.17,32.4,31.8,18.3,21.2,47.4,17.6,20.2,32.1,45.1,37.9,19.8,19.8
COc1cc(N=Nc2cccc(S(=O)(=O)O)c2)ccc1N=Nc1ccc(/C=C/c2ccc(-n3on3-c3ccc(/C=C/c4ccc(N=Nc5ccc(N=Nc6cccc(S(=O)(=O)O)c6)cc5OC)cc4S(=O)(=O)O)c(S(=O)(=O)O)c3)cc2S(=O)(=O)O)c(S(=O)(=O)O)c1,> 100,> 100,> 100,> 100,> 100,> 100,> 100,> 100,,> 100,> 100,> 100,> 100,> 100,> 100,> 100,> 100,> 100,> 100,> 100
